These compounds were tested against T1, human TLR7 (Homo sapiens, UniProt Q9NYK1) (assay: HEK293-Blue-hTLR-7 cells assay (SEAP reporter, R848 stimulation)). Conditions: HEK293-Blue-hTLR7 cells, R848, 20 hrs; read-out: HEK/hTLR7 IC50.
T1 construct: host or cells: HEK293 (HEK-Blue hTLR7)
T1 sequence (Q9NYK1 27-1049): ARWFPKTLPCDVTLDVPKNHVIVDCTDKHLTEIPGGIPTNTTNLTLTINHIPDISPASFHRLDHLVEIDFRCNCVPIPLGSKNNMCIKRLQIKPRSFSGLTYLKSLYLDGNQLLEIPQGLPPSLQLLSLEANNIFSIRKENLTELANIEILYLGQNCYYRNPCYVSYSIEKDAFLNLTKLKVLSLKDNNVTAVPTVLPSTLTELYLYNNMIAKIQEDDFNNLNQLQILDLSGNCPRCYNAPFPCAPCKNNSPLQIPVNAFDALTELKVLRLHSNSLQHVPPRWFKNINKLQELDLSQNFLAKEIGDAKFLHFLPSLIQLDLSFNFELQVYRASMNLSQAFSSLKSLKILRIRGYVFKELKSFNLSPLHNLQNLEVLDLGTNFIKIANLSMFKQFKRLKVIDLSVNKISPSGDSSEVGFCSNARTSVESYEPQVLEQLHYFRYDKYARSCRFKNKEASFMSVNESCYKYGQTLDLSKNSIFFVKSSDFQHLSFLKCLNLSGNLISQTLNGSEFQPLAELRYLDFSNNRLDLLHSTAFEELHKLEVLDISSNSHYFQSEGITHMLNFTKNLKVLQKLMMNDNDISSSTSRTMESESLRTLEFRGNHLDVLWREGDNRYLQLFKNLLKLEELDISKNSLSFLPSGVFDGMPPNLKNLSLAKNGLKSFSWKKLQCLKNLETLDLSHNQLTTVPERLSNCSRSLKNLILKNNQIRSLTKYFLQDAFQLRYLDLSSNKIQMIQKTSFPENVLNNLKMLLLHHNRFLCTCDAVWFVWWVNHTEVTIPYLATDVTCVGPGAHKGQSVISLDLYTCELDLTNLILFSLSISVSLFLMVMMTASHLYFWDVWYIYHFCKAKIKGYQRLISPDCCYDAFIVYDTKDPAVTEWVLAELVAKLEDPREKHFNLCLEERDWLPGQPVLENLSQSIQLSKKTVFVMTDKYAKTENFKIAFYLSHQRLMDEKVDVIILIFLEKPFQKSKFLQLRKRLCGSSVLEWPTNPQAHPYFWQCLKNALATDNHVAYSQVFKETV
Type: cell-based
Method in brief: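 HEK293-Blue-hTLR7 cells (NF-κB/AP-1-driven SEAP reporter) were stimulated with R848 alongside serially diluted compound at 1% final DMSO for 20 h at 37 °C. Supernatant SEAP was then developed with QUANTI-Blue for 2 h at 37 °C and absorbance read at 620–655 nm; antagonism is measured as reduced reporter signal.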

SMILES	IC50 [nM]
[2H]c1ccc2c(N3C[C@H](CN4CC(c5ccc(N6C[C@H](OC)[C@@H](N)C6)cc5)C4)O[C@H](C)C3)ccc(C#N)c2n1 [Example 140, 5-[(2S,6R)-2-[[3-[4-[(3S,4S)-3-amino-4-methoxy-pyrrolidin-1-yl]phenyl]azetidin-1-yl]methyl]-6-methyl-morpholin-4-yl]-2-deuterio-quinoline-8-carbonitrile]	22
[2H]c1ccc2c(N3C[C@H](CN4CC(c5ccc(N6CC(C)(N)C6)cc5)C4)O[C@H](C)C3)ccc(C#N)c2n1 [Example 141, 5-[(2S,6R)-2-[[3-[4-(3-amino-3-methyl-azetidin-1-yl)phenyl]azetidin-1-yl]methyl]-6-methyl-morpholin-4-yl]-2-deuterio-quinoline-8-carbonitrile]	4
[2H]c1ccc2c(N3C[C@H](CN4CC(c5cnc(N6CC(C)(N)C6)cc5C)C4)O[C@H](C)C3)ccc(C#N)c2n1 [Example 145, 5-[(2S,6R)-2-[[3-[6-(3-amino-3-methyl-azetidin-1-yl)-4-methyl-3-pyridyl]azetidin-1-yl]methyl]-6-methyl-morpholin-4-yl]-2-deuterio-quinoline-8-carbonitrile]	14
[2H]c1ccc2c(N3C[C@H](CN4CC(c5cnc(N6C[C@@H](N)[C@H](OC)C6)cc5C)C4)O[C@H](C)C3)ccc(C#N)c2n1 [Example 146, 5-[(2S,6R)-2-[[3-[6-[(3R,4R)-3-amino-4-methoxy-pyrrolidin-1-yl]-4-methyl-3-pyridyl]azetidin-1-yl]methyl]-6-methyl-morpholin-4-yl]-2-deuterio-quinoline-8-carbonitrile]	13
Cc1cc(N2CC(C)(N)C2)cnc1N1CCN(C[C@H]2CN(c3ccc(C#N)n4ncc(F)c34)C[C@@H](C)O2)CC1 [Example 148, 4-[(2S,6R)-2-[[4-[5-(3-amino-3-methyl-azetidin-1-yl)-3-methyl-2-pyridyl]piperazin-1-yl]methyl]-6-methyl-morpholin-4-yl]-3-fluoro-pyrazolo[1,5-a]pyridine-7-carbonitrile]	56
[2H]c1ccc2c(N3C[C@H](CN4CC(O)(c5ccc(N6CC(C)(N)C6)cc5)C4)O[C@H](C)C3)ccc(C#N)c2n1 [Example 156, 5-[(2S,6R)-2-[[3-[4-(3-amino-3-methyl-azetidin-1-yl)phenyl]-3-hydroxy-azetidin-1-yl]methyl]-6-methyl-morpholin-4-yl]-2-deuterio-quinoline-8-carbonitrile]	21
C[C@@H]1CN(c2ccc(C#N)n3nccc23)C[C@H](CN2CC(c3ccc(N4CC(C)(N)C4)nc3)C2)O1 [Example 157, 4-[(2S,6R)-2-[[3-[6-(3-amino-3-methyl-azetidin-1-yl)-3-pyridyl]azetidin-1-yl]methyl]-6-methyl-morpholin-4-yl]pyrazolo[1,5-a]pyridine-7-carbonitrile]	8

Results, then the compound that gave them:

IC50 [nM]	SMILES
20	[2H]c1ccc2c(N3C[C@H](CN4CCN(c5ncc(N6C[C@@H](N)[C@H](OC)C6)cc5C)CC4)O[C@H](C)C3)ccc(C#N)c2n1 [Example 142, 5-[(2S,6R)-2-[[4-[5-[(3R,4R)-3-amino-4-methoxy-pyrrolidin-1-yl]-3-methyl-2-pyridyl]piperazin-1-yl]methyl]-6-methyl-morpholin-4-yl]-2-deuterio-quinoline-8-carbonitrile]
11	[2H]c1ccc2c(N3C[C@H](CN4CCN(c5nc(C)cc(N6C[C@@H](N)[C@H](OC)C6)n5)CC4)O[C@H](C)C3)ccc(C#N)c2n1 [Example 144, 5-[(2S,6R)-2-[[4-[4-[(3R,4R)-3-amino-4-methoxy-pyrrolidin-1-yl]-6-methyl-pyrimidin-2-yl]piperazin-1-yl]methyl]-6-methyl-morpholin-4-yl]-2-deuterio-quinoline-8-carbonitrile]
53	[2H]c1ccc2c(N3C[C@H](CN4CCN(c5ccc(N6CC(C)(N)C6)c(C)n5)CC4)O[C@H](C)C3)ccc(C#N)c2n1 [Example 147, 5-[(2S,6R)-2-[[4-[5-(3-amino-3-methyl-azetidin-1-yl)-6-methyl-2-pyridyl]piperazin-1-yl]methyl]-6-methyl-morpholin-4-yl]-2-deuterio-quinoline-8-carbonitrile]
16	[2H]c1ccc2c(N3C[C@H](CN4CC(c5ccc(N6C[C@@H](N)[C@H](OC)C6)nc5)C4)O[C@H](C)C3)ccc(C#N)c2n1 [Example 149, 5-[(2S,6R)-2-[[3-[6-[(3R,4R)-3-amino-4-methoxy-pyrrolidin-1-yl]-3-pyridyl]azetidin-1-yl]methyl]-6-methyl-morpholin-4-yl]-2-deuterio-quinoline-8-carbonitrile]
35	[2H]c1ccc2c(N3C[C@H](CN4CCN(c5ccc(N6C[C@H](N)[C@@H](F)C6)nc5)CC4)O[C@H](C)C3)ccc(C#N)c2n1 [Example 150, 5-[(2S,6R)-2-[[4-[6-[(3S,4S)-3-amino-4-fluoro-pyrrolidin-1-yl]-3-pyridyl]piperazin-1-yl]methyl]-6-methyl-morpholin-4-yl]-2-deuterio-quinoline-8-carbonitrile]
35	[2H]c1ccc2c(N3C[C@H](CN4CCN(c5ccc(N6C[C@@H]7C[C@H]6CN7)nc5)CC4)O[C@H](C)C3)ccc(C#N)c2n1 [Example 151, 2-deuterio-5-[(2S,6R)-2-[[4-[6-[(1S,4S)-2,5-diazabicyclo[2.2.1]heptan-2-yl]-3-pyridyl]piperazin-1-yl]methyl]-6-methyl-morpholin-4-yl]quinoline-8-carbonitrile]
32	[2H]c1ccc2c(N3C[C@H](CN4CCN(c5ccc(N6C[C@H]7C[C@@H]6CN7)nc5)CC4)O[C@H](C)C3)ccc(C#N)c2n1 [Example 153, 2-deuterio-5-[(2S,6R)-2-[[4-[6-[(1R,4R)-2,5-diazabicyclo[2.2.1]heptan-2-yl]-3-pyridyl]piperazin-1-yl]methyl]-6-methyl-morpholin-4-yl]quinoline-8-carbonitrile]
18	[2H]c1ccc2c(N3C[C@H](CN4CCN(c5cccc(N6CC(C)(N)C6)n5)CC4)O[C@H](C)C3)ccc(C#N)c2n1 [Example 155, 5-[(2S,6R)-2-[[4-[6-(3-amino-3-methyl-azetidin-1-yl)-2-pyridyl]piperazin-1-yl]methyl]-6-methyl-morpholin-4-yl]-2-deuterio-quinoline-8-carbonitrile]
30	[2H]c1ccc2c(N3C[C@H](CN4CC(c5cccc(N6CC(C)(N)C6)n5)C4)O[C@H](C)C3)ccc(C#N)c2n1 [Example 159, 5-[(2S,6R)-2-[[3-[6-(3-amino-3-methyl-azetidin-1-yl)-2-pyridyl]azetidin-1-yl]methyl]-6-methyl-morpholin-4-yl]-2-deuterio-quinoline-8-carbonitrile]
8	[2H]c1ccc2c(N3C[C@H](CN4CCN(c5ccc(N6CC7(CN(C)C7)C6)nc5)CC4)O[C@H](C)C3)ccc(C#N)c2n1 [Example 161, 2-deuterio-5-[(2R,6S)-2-methyl-6-[[4-[6-(6-methyl-2,6-diazaspiro[3.3]heptan-2-yl)-3-pyridyl]piperazin-1-yl]methyl]morpholin-4-yl]quinoline-8-carbonitrile]

Source: patent publication US20210395239A1 (Hoffmann-La Roche Inc., priority 2018, published 2021)
